Among the test systems are SK-MEL-5 melanoma; HT29 colon; SK-MEL-28 melanoma; MOLT-4 leukemia; U251 CNS; SNB-19 CNS; SF-539 CNS; A498 renal; OVCAR-3 ovarian; KM12 colon; XF 498 CNS; HOP-62 NSCLC; MCF7 breast.
Holding throughout (assay): NCI tumour cell line growth inhibition, 48 h

Structures are written as SMILES.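 Dose response: 5 concentrations. Exposure: 48 h. Format: 96-well plates. Endpoint: linear interpolation; highest concentration if not reached. Here, GI50 denotes the concentration required for 50% inhibition of growth. The concentration for full growth arrest is given as TGI.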

For `O=S(=O)(CF)OCCCCOS(=O)(=O)CF`, the TGI in the test with SK-MEL-5 melanoma, in the test with HT29 colon, with SK-MEL-28 melanoma, with MOLT-4 leukemia, with U251 CNS and with SNB-19 CNS was more than 100 µM in each case. For the same compound, the TGI in the test with SF-539 CNS, with A498 renal and with OVCAR-3 ovarian was more than 100 µM in each case.

For the compound `Clc1ccc(N2N=C(c3cccc(Nc4ccncc4)c3)CC2c2ccc(Br)cc2)cc1` (centres undefined), the GI50 was 1.91 µM in the test with HT29 colon; 2.34 µM in the test with MOLT-4 leukemia; 1.74 µM in the test with SF-539 CNS; 1.07 µM in the test with A498 renal; 1.73 µM in the test on KM12 colon; 1.78 µM in the test on OVCAR-3 ovarian. For the same compound, the TGI in the test on HT29 colon came out at 4.48 µM; in the test on MOLT-4 leukemia, 6.17 µM; with SF-539 CNS, 3.26 µM; in the test with A498 renal, 2.3 µM; with KM12 colon, 3.27 µM; in the test on OVCAR-3 ovarian it was 3.29 µM.

With `Cn1c(=O)[nH]c2c(c1=O)C(=O)CN2`, the TGI with SK-MEL-5 melanoma, in the test with XF 498 CNS, in the test with SK-MEL-28 melanoma, in the test on MOLT-4 leukemia, in the test on U251 CNS and with SNB-19 CNS was more than 100 µM each time. Besides, the TGI with SF-539 CNS and with KM12 colon was more than 100 µM throughout.

Regarding `N#CCCN(CCC#N)c1ccc(/C=C(/NC(=O)Nc2ccccc2Cl)NC(=O)c2cc([N+](=O)[O-])ccc2Cl)cc1`, the TGI in the test on SK-MEL-5 melanoma, in the test on XF 498 CNS, in the test on SK-MEL-28 melanoma, with MOLT-4 leukemia, with U251 CNS and in the test with SNB-19 CNS was more than 100 µM each time. Also, the TGI with SF-539 CNS, in the test on HOP-62 NSCLC, with KM12 colon and in the test with OVCAR-3 ovarian was more than 100 µM throughout.

As to `CCOC(=O)c1ccc(N(CCOS(=O)(=O)c2ccc(C)cc2)CCOS(=O)(=O)c2ccc(C)cc2)cc1`, the TGI is more than 100 µM in the test with SK-MEL-5 melanoma; more than 100 µM with HT29 colon; more than 100 µM in the test with MOLT-4 leukemia; 46.6 µM with U251 CNS; more than 100 µM with MCF7 breast; more than 100 µM in the test on SNB-19 CNS. Also, the TGI is 41.1 µM in the test with SF-539 CNS, more than 100 µM in the test on A498 renal, more than 100 µM in the test on KM12 colon and more than 100 µM in the test on OVCAR-3 ovarian.

For `C[Si](C)(C)/C=C/CN1C(=O)CCC1=O`, the TGI in the test with SK-MEL-5 melanoma, with XF 498 CNS, in the test on HT29 colon, with SK-MEL-28 melanoma, in the test with U251 CNS and in the test with SNB-19 CNS was more than 100 µM in each case. Also, the TGI with SF-539 CNS, in the test with A498 renal, with KM12 colon and with OVCAR-3 ovarian was more than 100 µM throughout.

Regarding `O=C(NCCN(CCNC(=O)c1cccc(=O)n1O)CCNC(=O)c1cccc(=O)n1O)c1cccc(=O)n1O`, the TGI in the test on SK-MEL-5 melanoma, in the test with HT29 colon, in the test on SK-MEL-28 melanoma, in the test with U251 CNS, with MCF7 breast and in the test with SNB-19 CNS was more than 100 µM each time. The TGI with SF-539 CNS, in the test with HOP-62 NSCLC, with A498 renal, in the test on KM12 colon and with OVCAR-3 ovarian was more than 100 µM in each case.

For `Cc1ccc(CN2CCN(Cc3ccc(C)o3)C(C)C2)o1` (centres undefined), the TGI in the test with SK-MEL-5 melanoma, in the test with HT29 colon, in the test with SK-MEL-28 melanoma, with MOLT-4 leukemia, with U251 CNS and in the test on MCF7 breast was more than 100 µM throughout. The TGI with SNB-19 CNS, in the test on SF-539 CNS, in the test with HOP-62 NSCLC, in the test with A498 renal, with KM12 colon and in the test with OVCAR-3 ovarian was more than 100 µM each time.

As to `COC(=O)C(=O)C(C(C)=O)C(=O)C(=O)Nc1ccc(C)cc1C` (centres undefined), the TGI in the test on SK-MEL-5 melanoma, with XF 498 CNS, with HT29 colon, with SK-MEL-28 melanoma, in the test on MOLT-4 leukemia and in the test on U251 CNS was more than 100 µM in each case. In addition, the TGI in the test on SNB-19 CNS, in the test with SF-539 CNS, in the test on HOP-62 NSCLC, with A498 renal and in the test on KM12 colon was more than 100 µM each time.

Regarding `COc1ccc(NC(/C(C(=O)C(=O)/C=C(\O)c2ccccc2)=C(\O)c2ccccc2)c2ccc(OC)cc2)cc1` (centres undefined), the TGI in the test with SK-MEL-5 melanoma, in the test with HT29 colon, in the test with SK-MEL-28 melanoma, with MOLT-4 leukemia, in the test on U251 CNS and in the test with MCF7 breast was more than 100 µM throughout. The TGI in the test on SNB-19 CNS is more than 100 µM; in the test on SF-539 CNS, more than 100 µM; in the test on HOP-62 NSCLC, more than 100 µM; with A498 renal, more than 100 µM; with KM12 colon, more than 100 µM; in the test on OVCAR-3 ovarian, 94.1 µM.

Turning to `COc1ccc(N[C@@H]2c3cc4c(cc3C(c3cc(OC)c(O)c(OC)c3)[C@H]3C(=O)OCC32)OCO4)cc1OC` (some centres undefined), the TGI was more than 31.7 µM in the test on SK-MEL-5 melanoma; more than 61.8 µM with XF 498 CNS; more than 20.7 µM in the test on HT29 colon; more than 100 µM in the test with SK-MEL-28 melanoma; more than 67.5 µM in the test with U251 CNS; more than 100 µM in the test with MCF7 breast. For the same compound, the TGI was more than 79.2 µM in the test on SNB-19 CNS, more than 100 µM in the test with A498 renal, more than 21.8 µM with KM12 colon and more than 28.4 µM with OVCAR-3 ovarian.

Turning to `COc1cc(C(=O)OC2CC34CCNC35CC(OC5(OC)C2O)c2cc3c(cc24)OCO3)ccc1O` (centres undefined), the TGI with SK-MEL-5 melanoma, in the test on HT29 colon, with SK-MEL-28 melanoma, in the test with MOLT-4 leukemia, with U251 CNS and in the test on MCF7 breast was more than 100 µM throughout. Further, the TGI in the test on SNB-19 CNS, in the test with SF-539 CNS, with HOP-62 NSCLC, in the test with A498 renal, with KM12 colon and in the test on OVCAR-3 ovarian was more than 100 µM throughout.

On to `CC(=O)c1cccc(Nc2nc3ccccc3c3[nH]c4ccccc4c23)c1`, for which the TGI with HT29 colon was 17 µM; with U251 CNS, 16.4 µM; with MCF7 breast, 4.22 µM; in the test with SNB-19 CNS, more than 100 µM; in the test on SF-539 CNS, 18 µM; with HOP-62 NSCLC it was 42 µM. The TGI with KM12 colon is more than 100 µM; with OVCAR-3 ovarian it was 6.56 µM.

As to `CCCCCC(/C=C/c1ncccc1OCCCCCC(=O)O)=N\NC1=NCCN1`, the TGI in the test with XF 498 CNS is 54.8 µM; with HT29 colon it was more than 100 µM; in the test on SK-MEL-28 melanoma, more than 100 µM; with MOLT-4 leukemia it was more than 100 µM; with SNB-19 CNS, more than 100 µM; with SF-539 CNS, more than 100 µM. Moreover, the TGI in the test on HOP-62 NSCLC, in the test with KM12 colon and with OVCAR-3 ovarian was more than 100 µM each time.

Values taken from PubChem BioAssay (NCI).
